Laboratory results as given in PMC7461649 (Journal of medicinal chemistry, 2020).
Where two headings read alike, the source gives them in different places. Values belong to the compound of their own block, whether it stands above or below them.

Assays:
TnmH [1] = biological target: T1, TnmH (Streptomyces sp. CB03234, UniProt A0A125SA05); test: biochemical
TnmH [2] = biological target: T1, TnmH; details: saturating SAM (1 mM)
[3] = biological target: TnmH (Streptomyces sp. CB03234); test: SEC

Compound: C[S+](CC[C@H](N)C(=O)O)C[C@H]1O[C@@H](n2cnc3c(N)ncnc32)[C@H](O)[C@@H]1O (stereo partly shown) [SAM]
Km (TnmH [1]): 62 ± 4.8 µM

Compound: TNM F [compound 10]
Km (TnmH [2]; 10 varied 7.8 to 500 μM, C-7 hydroxyl methylation to 12): 11.7 ± 1.2 µM

Compound: COC(=O)C(O)C(C)(O)[C@@]12OC13c1cc(O)c4c(c1N[C@H]2C#C/C=C\C#C[C@H]3O)C(=O)c1c(ccc(O)c1O)C4=O (stereo partly shown) [compound 11, TNM C]
Km (TnmH [2]; 11 varied 7.8 to 500 μM, C-7 hydroxyl methylation to 13): 31.1 ± 4.1 µM

stoichiometry N [3]: 2
Compound: TnmH (enzyme)
